According to patent US20230183239A1, “ECTONUCLEOTIDE PYROPHOSPHATASE-PHOSPHODIESTERASE 1 (ENPP-1) INHIBITORS AND USES THEREOF” (AbbVie Inc., priority 2017, published 2023):

Tests used:
Type in all cases: biochemical
ENPP1 [1] = target: T1, ENPP1 (Homo sapiens, UniProt P22413); test: Indirect quantitation of 2',3'-cGAMP hydrolysis (AMP-Glo Assay kit); conditions: cGAMP substrate; Ki from IC50 by Cheng-Prusoff; read-out: ENPP1 Inhibition -cGAMP: Ki
T1 sequence (P22413 1-925): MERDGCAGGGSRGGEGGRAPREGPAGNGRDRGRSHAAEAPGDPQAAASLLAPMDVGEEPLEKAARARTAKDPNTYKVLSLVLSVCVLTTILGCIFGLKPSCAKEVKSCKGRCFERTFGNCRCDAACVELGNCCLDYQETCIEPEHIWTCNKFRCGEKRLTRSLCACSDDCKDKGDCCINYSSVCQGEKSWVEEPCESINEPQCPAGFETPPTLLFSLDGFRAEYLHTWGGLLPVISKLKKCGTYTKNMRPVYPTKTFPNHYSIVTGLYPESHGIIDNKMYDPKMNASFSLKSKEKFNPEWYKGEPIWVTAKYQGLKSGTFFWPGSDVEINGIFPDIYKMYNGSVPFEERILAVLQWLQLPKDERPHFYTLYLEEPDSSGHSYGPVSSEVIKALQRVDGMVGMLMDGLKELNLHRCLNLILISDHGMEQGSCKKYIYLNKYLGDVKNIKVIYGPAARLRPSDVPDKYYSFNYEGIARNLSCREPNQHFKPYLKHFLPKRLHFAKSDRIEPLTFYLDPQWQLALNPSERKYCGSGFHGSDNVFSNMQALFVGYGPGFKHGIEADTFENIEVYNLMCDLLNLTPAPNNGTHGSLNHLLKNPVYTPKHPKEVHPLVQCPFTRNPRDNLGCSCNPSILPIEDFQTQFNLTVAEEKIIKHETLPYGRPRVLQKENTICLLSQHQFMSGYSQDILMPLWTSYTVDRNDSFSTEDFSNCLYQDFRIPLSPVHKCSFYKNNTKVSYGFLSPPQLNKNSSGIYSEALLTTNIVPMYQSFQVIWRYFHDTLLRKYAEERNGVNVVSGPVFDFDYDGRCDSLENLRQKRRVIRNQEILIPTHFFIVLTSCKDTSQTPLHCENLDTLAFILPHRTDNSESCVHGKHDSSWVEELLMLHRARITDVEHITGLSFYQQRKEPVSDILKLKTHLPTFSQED

ENPP1 [2] = target: T1, ENPP1; test: ENPP1 enzyme assay with cGAMP substrate (AMP-Glo); parameters: purchased R&D Systems; conditions: read-out: cGAMP: % Inhibition at 1 µM
Excerpt: Example B1: ENPP1 Enzyme Assay With cGAMP Substrate
Ectonucleotide pyrophosphatase/phosphodiesterase 1 (ENPP-1) is a transmembrane glycoprotein that hydrolyzes nucleotides and nucleotide derivatives with the formation of nucleoside-5’-monophosphates. […] The 5’-AMP formed from the reaction is detected using the AMP-Glo® Kit (Promega). The assay kit contains two reagents. The first reagent terminates the enzymatic reaction, removes ATP (using adenylyl cyclase), and converts 5’-AMP produced into ADP (using polyphosphate: AMP phosphotransferase). The second reagent converts ADP to ATP (using adenylate kinase) and generates light from ATP using the luciferin/luciferase reaction.
Different concentrations of ENPP1 inhibitors are pre-incubated with 5 ng/well of human ENPP-1 enzyme (R&D Systems) for 15 minutes at 37° C. The reaction is initiated by adding 20 µM 2’3’-cGAMP and incubating for 30 minutes at 37° C. The final assay reaction mixture contains a buffer of 50 mM Tris pH 8.0, 250 mM NaCl, 0.5 mM CaCl2, 1 µM ZnCl2 and 1% DMSO. At the end of the incubation, the reaction is stopped by adding 12 µl of AMP-Glo reagent-1 and mixing the reaction uniformly for 5 minutes, followed by incubation at room temperature for one hour. Then 25 µl of AMP Glo reagent-2 is added to the reaction, mixed uniformly with a pipette, and incubated at room temperature for one hour to convert the ADP formed from reagent-1 to ATP and light. The generated light is measured in a Perkin Elmer Victor® instrument.
The IC50 values for percent inhibition versus compound concentration are determined by fitting the inhibition curves using a four-parameter variable slope model in GraphPad Prism® software. Ki values are derived from the IC50 values using the Cheng-Prusoff equation: […]

ENPP1 [3] = target: T1, ENPP1; test: Substrate selectivity ratio, inhibition of cGAMP hydrolysis versus ATP hydrolysis; conditions: ratio Ki AMP-pNP / Ki cGAMP
Procedure: The selectivity ratios for inhibition of cGAMP hydrolysis versus ATP hydrolysis were then calculated as follows: […]

ENPP1 [4] = target: T1, ENPP1; test: ENPP1 enzyme assay with AMP-pNP substrate (hydrolysis of ATP analog); conditions: AMP-pNP substrate (ATP analog); Ki from IC50 by Cheng-Prusoff; read-out: ENPP1 Inhibition _AMP-pNP: Ki
Summary of the method: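 Human recombinant ENPP1 (60 ng/well) with 300 µM AMP-pNP in 50 mM Tris-HCl pH 8.5, 250 mM NaCl, 0.5 mM CaCl2, 1 µM ZnCl2, 0.1% DMSO, 20 min at 37 °C.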

Ki (ENPP1 [1]) [nM]	Substrate Selectivity: Ki_AMP-pNP/Ki_cGAMP (ENPP1 [3])	Ki (ENPP1 [4]) [nM]	SMILES	inhibition at 1 µM (ENPP1 [2]) [%]
100 to 1000	>42.9	> 1000	COc1nc2ncnc(N3CCC(CCNS(N)(=O)=O)CC3)c2n1C [Example 218, N-(2-(1-(8-methoxy-7-methyl-7H-purin-6-yl)piperidin-4-yl)ethyl)sulfamide]	
< 100	>118	> 1000	COc1cc2c(N3CCC4(CC3)CCN(S(N)(=O)=O)C4)c(C#N)cnc2cn1 [Example 256, 8-(3-cyano-6-methoxy-1,7-naphthyridin-4-yl)-2,8-diazaspiro [4.5] decane-2-sulfonamide]	
< 100	42	100 to 1000	COc1ccc2c(N3CCc4cc(NS(N)(=O)=O)ccc43)c(C)cnc2c1 [Example 378, N-(1-(7-methoxy-3-methylquinolin-4-yl)indolin-5-yl)sulfamide]	
100 to 1000	>16.2	> 1000	COc1cc2nccc(Oc3cc(F)c(NS(N)(=O)=O)c(F)c3)c2cc1OC [Example 271, N-(4-((6,7-dimethoxyquinolin-4-yl)oxy)-2,6-difluorophenyl)sulfamide]	
< 100	62	100 to 1000	COc1cc2nccc(-c3ccc(CNS(N)(=O)=O)cc3)c2cc1F [Example 239, N-(4-(6-fluoro-7-methoxyquinolin-4-yl)benzyl)sulfamide]	
< 100	> 13.4	> 1000	COc1cc2ncnc(NCc3ccc(C(=O)NO)cc3)c2cc1OC [Example 196, 4-(((6,7-dimethoxyquinazolin-4-yl)amino)methyl)-N-hydroxybenzamide]	
< 100	50	100 to 1000	COc1ccc2c(-c3ccc(C(C)NS(N)(=O)=O)cc3)ccnc2c1 (centres unmarked) [Example 416, N-(1-(4-(7-methoxyquinolin-4-yl)phenyl)ethyl)sulfamide]	
< 100	>414	> 1000	COc1cc2ncnc(N3CCC(CCN)CC3)c2cc1OC [Example 334, 2-(1-(6,7-dimethoxyquinazolin-4-yl)piperidin-4-yl)ethan-1-amine]	
< 100	>18	100 to 1000	COc1ccc2c(-c3ccc(C(C)(C)NS(N)(=O)=O)cc3)ccnc2c1 [Example 357, N-(2-(4-(7-methoxyquinolin-4-yl)phenyl)propan-2-yl)sulfamide]	
< 100	25	< 100	COc1ccc2c(N3CCc4cc(NS(N)(=O)=O)cc(F)c43)ccnc2c1 [Example 375, N-(7-fluoro-1-(7-methoxyquinolin-4-yl)indolin-5-yl)sulfamide]	
< 100	>43.2	100 to 1000	COc1cc2nccc(Oc3ccc(NS(=O)(=O)c4ccccc4)cc3)c2cc1OC [Example 86, N-(4-((6,7-dimethoxyquinolin-4-yl)oxy)phenyl)benzenesulfonamide]	
< 100	20.7	100 to 1000	COc1cc2ncnc(-c3ccc(CCNS(N)(=O)=O)cc3)c2cc1OC [Example 145, N-(4-(6,7-dimethoxyquinazolin-4-yl)phenethyl)sulfamide]	
100 to 1000	>77	> 1000	COc1ccc2c(N3CCc4cc(NS(N)(=O)=O)ccc43)ccnc2c1F [Example 376, N-(1-(8-fluoro-7-methoxyquinolin-4-yl)indolin-5-yl)sulfamide]	
100 to 1000	>227	> 1000	COc1ccc2c(-c3ccc(CCNS(N)(=O)=O)cc3)ccnc2c1 [Example 403, N-(4-(7-methoxyquinolin-4-yl)phenethyl)sulfamide]	
< 100	10.1	< 100	COc1cc2nccc(-c3ccc4c(c3)CN(S(N)(=O)=O)CC4)c2cc1OC [Example 148, 7-(6,7-dimethoxyquinolin-4-yl)-3,4-dihydroisoquinoline-2(1H)-sulfonamide]	
< 100	22.4	100 to 1000	COc1ccc2ncnc(NCc3ccc(S(N)(=O)=O)cc3)c2c1 [Example 306, 4-(((6-methoxyquinazolin-4-yl)amino)methyl)benzenesulfonamide]	
< 100	>45.9	> 1000	COc1ccc2ncnc(NC(C)c3ccc(NS(N)(=O)=O)cc3)c2c1 (centres unmarked) [Example 299, N-(4-(1-((6-methoxyquinazolin-4-yl)amino)ethyl)phenyl)sulfamide]	
< 100	17.9	< 100	COc1ccc2c(NCc3ccc(S(N)(=O)=O)cc3)ccnc2c1 [Example 293, 4-(((7-methoxyquinolin-4-yl)amino)methyl)benzenesulfonamide]	
100 to 1000	>153	> 1000	COc1ccc2c(-n3cc(Cl)c4cc(NS(N)(=O)=O)ccc43)ccnc2c1 [Example 413, N-(3-chloro-1-(7-methoxyquinolin-4-yl)-1H-indol-5-yl)sulfamide]	
< 100	15.5	< 100	COc1ccc2ncnc(N3CCC4(CC3)CCN(S(N)(=O)=O)C4)c2c1 [Example 70, 8-(6-methoxyquinazolin-4-yl)-2,8-diazaspiro [4.5] decane-2-sulfonamide]	
< 100	16.7	< 100	COc1cc2ncc(C)c(-c3ccc4c(c3)CN(S(N)(=O)=O)CC4)c2cc1OC [Example 60, 7-(6,7-dimethoxy-3-methylquinolin-4-yl)-3,4-dihydroisoquinoline-2(1H)-sulfonamide]	

SMILES	Ki (ENPP1 [1]) [nM]	Substrate Selectivity: Ki_AMP-pNP/Ki_cGAMP (ENPP1 [3])	Ki (ENPP1 [4]) [nM]	inhibition at 1 µM (ENPP1 [2]) [%]
NS(=O)(=O)NCCC1CCN(c2ncnc3c2cnn3-c2ccccc2)CC1 [Example 26, N-(2-(1-(1-phenyl-1H-pyrazolo[3,4-d]pyrimidin-4-yl)piperidin-4-yl)ethyl)sulfamide]	> 1000			< 25
COc1cc2ccnc(N3CCC(CCNS(N)(=O)=O)CC3)c2cc1OC [Example 21, N-{2-[1-(6,7-dimethoxyisoquinolin-1-yl)piperidin-4-yl]ethyl}aminosulfonamide]	> 1000			25 to 50
NS(=O)(=O)NCCC1CCN(c2ccnc(Nc3cccnc3)n2)CC1 [Example 12, N-(2-(1-(2-(pyridin-3-ylamino)pyrimidin-4-yl)piperidin-4-yl)ethyl)sulfamide]	> 1000			< 25
NS(=O)(=O)NCCC1CCN(c2ccnc(Nc3ccncc3)n2)CC1 [Example 13, N-(2-(1-(2-(pyridin-4-ylamino)pyrimidin-4-yl)piperidin-4-yl)ethyl)sulfamide]	> 1000			25 to 50
